Our source for the AC50 and EC50 values is ChEMBL document CHEMBL1201862, “PubChem BioAssay data set” (2004).

Data set [1] has as its target Cytochrome P450 2C19 (Homo sapiens, UniProt P33261). Nature of the data set: Cytochrome panel assay with activity outcomes. Panel member name: p450-cyp2c19 Compounds with AC50 equal or less than 10 uM are considered active. Format: functional.
The target in data set [2] is Cytochrome P450 2D6 (Homo sapiens, UniProt P10635).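 Note: CYP2D6 member of a cytochrome P450 panel assay.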
Sequence of Cytochrome P450 2D6 (P10635 whole entry): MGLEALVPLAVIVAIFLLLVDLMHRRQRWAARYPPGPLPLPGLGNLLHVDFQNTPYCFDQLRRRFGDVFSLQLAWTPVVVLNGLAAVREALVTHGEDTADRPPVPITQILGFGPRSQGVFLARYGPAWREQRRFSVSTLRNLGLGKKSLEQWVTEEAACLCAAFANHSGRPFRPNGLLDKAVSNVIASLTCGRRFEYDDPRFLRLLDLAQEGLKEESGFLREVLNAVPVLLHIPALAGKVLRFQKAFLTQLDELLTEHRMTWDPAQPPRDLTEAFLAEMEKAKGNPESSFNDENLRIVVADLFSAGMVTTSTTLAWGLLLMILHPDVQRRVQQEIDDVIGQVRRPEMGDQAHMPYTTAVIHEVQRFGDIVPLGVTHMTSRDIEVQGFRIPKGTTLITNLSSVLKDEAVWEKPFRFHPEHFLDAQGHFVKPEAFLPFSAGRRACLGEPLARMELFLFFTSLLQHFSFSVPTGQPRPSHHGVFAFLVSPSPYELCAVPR
Data set [3] in a line: Trypanosoma cruzi growth suppression in host cells – NIH3T3 host cells, beta-gal luminescence, confirmation (AID 2044).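 Note: intracellular parasites grown in NIH/3T3 mouse fibroblasts as host cells; luminescent beta-galactosidase reporter signal from transgenic T. cruzi replicating inside host cells; inhibitors lower the luminescence signal.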 In kind it is functional, cell-based.
Data set [4] is described as follows: NIH3T3 cell viability loss – ATP luminescence, mouse fibroblasts, counter-screen, dose response (AID 2010).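 Note: cells exposed to compound for about 90 hours before reading.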 In kind it is functional, cell-based.
For data set [5], the target named is Cytochrome P450 2C9 (Homo sapiens, UniProt P11712).
Sequence of Cytochrome P450 2C9 (P11712 whole entry): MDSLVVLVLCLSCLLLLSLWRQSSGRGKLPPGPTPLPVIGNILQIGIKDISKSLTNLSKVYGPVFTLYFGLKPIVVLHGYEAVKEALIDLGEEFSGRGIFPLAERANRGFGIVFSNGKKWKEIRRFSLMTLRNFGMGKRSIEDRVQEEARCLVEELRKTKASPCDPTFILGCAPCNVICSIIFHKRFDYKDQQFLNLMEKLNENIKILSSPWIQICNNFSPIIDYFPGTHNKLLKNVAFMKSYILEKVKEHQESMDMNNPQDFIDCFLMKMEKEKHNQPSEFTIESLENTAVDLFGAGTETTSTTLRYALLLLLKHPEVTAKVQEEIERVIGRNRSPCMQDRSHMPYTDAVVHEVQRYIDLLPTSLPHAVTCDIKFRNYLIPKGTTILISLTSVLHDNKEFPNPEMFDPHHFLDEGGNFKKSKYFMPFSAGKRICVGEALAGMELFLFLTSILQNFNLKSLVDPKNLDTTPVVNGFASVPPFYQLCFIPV
Data set [6] addresses T1, Corticotropin-releasing factor receptor 2/Corticotropin-releasing factor-binding protein (Homo sapiens, UniProt P24387+Q13324).
T1 sequence (Q13324 whole entry): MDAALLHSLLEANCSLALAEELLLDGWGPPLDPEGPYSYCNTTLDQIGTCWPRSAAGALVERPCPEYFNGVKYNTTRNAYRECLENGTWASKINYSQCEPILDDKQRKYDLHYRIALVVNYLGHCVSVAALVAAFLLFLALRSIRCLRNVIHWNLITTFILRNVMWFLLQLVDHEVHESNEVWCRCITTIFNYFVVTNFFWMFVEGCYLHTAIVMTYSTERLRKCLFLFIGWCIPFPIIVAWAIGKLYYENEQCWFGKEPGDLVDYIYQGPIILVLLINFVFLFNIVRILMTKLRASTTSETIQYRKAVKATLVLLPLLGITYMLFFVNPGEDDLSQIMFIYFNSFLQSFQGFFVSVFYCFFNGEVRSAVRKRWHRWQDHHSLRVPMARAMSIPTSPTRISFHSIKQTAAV
T1 sequence (P24387 whole entry): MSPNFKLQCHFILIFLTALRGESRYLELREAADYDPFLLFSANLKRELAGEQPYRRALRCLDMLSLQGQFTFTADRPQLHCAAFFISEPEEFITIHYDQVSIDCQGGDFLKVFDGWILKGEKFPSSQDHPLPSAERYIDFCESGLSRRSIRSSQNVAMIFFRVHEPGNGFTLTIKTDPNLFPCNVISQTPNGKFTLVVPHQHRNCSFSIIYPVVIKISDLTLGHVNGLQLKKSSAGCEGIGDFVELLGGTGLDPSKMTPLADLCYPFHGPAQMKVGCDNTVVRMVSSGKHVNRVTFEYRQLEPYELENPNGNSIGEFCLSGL
Nature of the data set: activators of CRF receptor 2 with binding protein – uHTS hits, confirmation (AID 602473). The following applies: read-out: EC50_Mean. In kind it is functional.

Data set [7] relates to Streptococcus sp. 'group A'. Nature of the data set: Streptococcus pyogenes SK(-)GAS viability under kanamycin – luminescence, BacTiterGlo, confirmation, counter-screen for streptokinase expression inhibitor project, dose response (AID 1900). Format: functional, organism-based. In general terms: Counterscreens check selectivity or assay interference.
Data set [8] has as its system Streptococcus. Nature of the data set: GAS UMAA2166 growth inhibition – luminescence, BacTiterGlo, counter-screen for streptokinase expression inhibitor project, dose response (AID 1915).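 Note: potency for reduction of bacterial viability or growth.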 Format: functional, organism-based.

Active and inactive are the calls of the source.

Sequence of Cytochrome P450 2C19 (P33261 whole entry): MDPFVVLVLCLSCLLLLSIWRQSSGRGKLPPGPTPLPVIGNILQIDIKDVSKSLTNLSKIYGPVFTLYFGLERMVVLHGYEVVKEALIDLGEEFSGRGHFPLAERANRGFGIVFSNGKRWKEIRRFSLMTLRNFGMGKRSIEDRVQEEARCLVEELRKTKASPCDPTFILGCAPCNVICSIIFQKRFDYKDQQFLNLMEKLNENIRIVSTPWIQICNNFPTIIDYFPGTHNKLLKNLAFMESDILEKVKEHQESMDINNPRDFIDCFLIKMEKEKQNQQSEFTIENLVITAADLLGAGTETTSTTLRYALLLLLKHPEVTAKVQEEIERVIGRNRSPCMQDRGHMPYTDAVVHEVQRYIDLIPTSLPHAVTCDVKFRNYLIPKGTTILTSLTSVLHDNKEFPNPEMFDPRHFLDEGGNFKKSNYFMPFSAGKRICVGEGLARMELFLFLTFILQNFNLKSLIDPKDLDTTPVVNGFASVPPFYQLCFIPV

The AC50 is the midpoint of the concentration-response curve, whichever way the signal moves. On to `Cn1cc(-c2nc3cncnc3n(-c3ccccc3)c2=O)c2ccccc21`, for which the AC50 in data set [1] (read-out: AC50) was 39.8 µM (inconclusive).

As to `Cc1cccc([C@H](C)c2cnc[nH]2)c1C` [DEXMEDETOMIDINE], the AC50 in data set [2] was 12.6 µM (inconclusive).

`Cc1ccc(SCc2n[nH]c3c2C(C(C)C)C(C#N)=C(N)O3)cc1` (stereo not drawn): in data set [2], the AC50 was 0.00316 µM (inconclusive).

`O=C(NC(=S)Nc1ccc(CN2CCCCC2)cc1)c1cccc(OCc2ccccc2)c1`: the EC50 in data set [3] is 1.09 µM (active); in data set [4] it was > 60 µM (not active).

As to `Oc1ccc(Oc2nc(N3CCOCC3)nc(N3CCOCC3)n2)nn1`, in data set [1] (read-out: AC50), the AC50 is 2.82 µM (inconclusive).

For `Cc1cc(C)c2nc3c(c([C@H](O)[C@@H]4CCCCN4)c2c1)CC/C3=C/c1ccc(Cl)cc1`, the AC50 in data set [5] is 1 µM (inconclusive).

Regarding `O=[N+]([O-])c1cc(Oc2cccnc2)cc([N+](=O)[O-])c1`, the EC50 in data set [3] was 0.503 µM (active); in data set [4] it was > 60 µM (not active).

Take `COc1ccccc1/C=C/C(=O)OCCCN(C)C`: the EC50 in data set [3] is 0.794 µM (active); in data set [4], > 30 µM (not active).

With `COc1cccc(C(=O)NC2CCN(C(=O)N3c4ccccc4Sc4ccccc43)CC2)c1`, the EC50 was 2.23 µM (active) in data set [3] and > 60 µM (not active) in data set [4].

With `CC(C)c1cc(-c2cc(C(=O)NCc3ccccc3)on2)nc(NCC2CC2)n1`, the EC50 in data set [6] was 10.2 µM (active).

Turning to `CCOc1ccc(NS(=O)(=O)c2ccc(C(=O)N3CCCC(C)C3)cc2)cc1` (stereo not drawn), the EC50 in data set [6] was 11.1 µM (active).

Regarding `CC(OC(=O)c1ccc(S(=O)(=O)NCc2ccco2)cc1)C(=O)Nc1ccc(Cl)cn1` (stereo not drawn), the EC50 in data set [6] is 4.62 µM (active).

Take `CCOC(=O)c1c(-c2ccccc2)csc1NC(=O)/C(C#N)=C\c1ccc(O)c(OC)c1`: in data set [6], the EC50 was 6.49 µM (active).

Take `N#Cc1ccc(CN2CCCC3(CCN(C(=O)c4cnccn4)CC3)C2)cc1`: the AC50 in data set [2] is 10 µM (inconclusive).

As for `O=S(=O)(c1ccccc1)c1cnn2c(C(F)(F)F)cc(-c3ccccc3)nc12`, the AC50 in data set [1] (read-out: AC50) is 39.8 µM (inconclusive); in data set [5] it was 0.708 µM (inconclusive).

In the case of `Cc1cc(/C=C2\C(=N)N3N=C(S(C)(=O)=O)SC3=NC2=O)c(C)n1Cc1ccccc1`, the EC50 was 4.19 µM (active) in data set [7] and 21.1 µM (active) in data set [8].

With `COc1ccc(NC(=O)OC(C)C)cc1`, the concentration at half-maximal activity (AC50) in data set [1] (read-out: AC50) is 28.2 µM (inconclusive); in data set [2] it was 35.5 µM (inconclusive); in data set [5], 14.1 µM (inconclusive).

For the compound `O=C(CSc1nc2ccccc2s1)c1sc2sc3ccccc3[n+]2c1O`, the AC50 in data set [5] is 6.31 µM (inconclusive).

For `COC(=O)[C@@]1(Cc2ccccc2)[C@H]2c3cc(C(=O)N4CCCC4)n(Cc4ccc(C(F)(F)F)nc4)c3C[C@H]2CN1C(=O)c1ccccc1`, the AC50 in data set [2] was 25.1 µM (inconclusive).

With `C=CCN1CCC2(C)c3cc(O)ccc3CC1C2C` (stereo not drawn), in data set [6], the EC50 is > 53 µM (inactive).

With `COc1c(Cl)cc(-c2noc(C)c2C(=O)NCc2ccc3c(c2)OCO3)cc1Cl`, the EC50 in data set [6] was > 53 µM (inactive).

As for `Cc1cc(SCC(=O)c2ccc(Br)cc2)cc(C)[o+]1`, the AC50 in data set [1] (read-out: AC50) is 0.398 µM (inconclusive); in data set [2], 3.16 µM (inconclusive).

Turning to `O=C(Nc1ccncc1)c1cc(S(=O)(=O)N2CCN(c3ccccc3)CC2)ccc1Cl`, the EC50 was 2.56 µM (active) in data set [3] and > 30 µM (not active) in data set [4].

`Cc1ccc2c(c1)N(CC(=O)NC1CCC(C)CC1)C(=O)CO2` (stereo not drawn): the AC50 in data set [2] is 14.1 µM (inconclusive).

As for `NC(=NOC(=O)Cc1ccc(-c2ccccc2)cc1)c1cccc([N+](=O)[O-])c1`, the AC50 in data set [1] (read-out: AC50) is 2.82 µM (inconclusive); in data set [5] it was 10 µM (inconclusive).

As to `CC(=O)SC[C@@H](Cc1ccccc1)C(=O)NCC(=O)OCc1ccccc1` [ECADOTRIL], the AC50 in data set [5] is 3.98 µM (inconclusive).

As to `c1ccc(CN2CCCC3(CCCN(Cc4nc(COc5ccccc5)no4)C3)C2)cc1` (stereo not drawn), the results for the EC50 in data set [3] and in data set [4] were 0.285 µM (active) and > 60 µM (not active), respectively.

Consider `Cc1ccc(C(=O)NNC(=O)CSc2nnc(-c3ccncc3)n2-c2ccc(C)cc2)cc1`, for which, in data set [2], the AC50 was 12.6 µM (inconclusive).

In the case of `CCOC(=O)c1ccc(NC(=O)C2CCCO2)cc1` (stereo not drawn), the AC50 in data set [1] (read-out: AC50) is 14.1 µM (inconclusive); in data set [5], 0.0251 µM (inconclusive).

`C[C@H](N[C@@H](C)COc1ccccc1)[C@H](O)c1ccc(O)cc1` [ISOXSUPRINE]: in data set [1] (read-out: AC50), the AC50 is 15.8 µM (inconclusive).

Consider `CCOc1ccc(N2C(=O)CS/C2=N/NC(=O)COc2ccc3ccccc3c2)cc1`, for which the results for the half-maximal activity concentration (AC50) in data set [2] and in data set [5] were 39.8 µM (inconclusive) and 31.6 µM (inconclusive), respectively.

Consider `CCOC(=O)/C(=C\c1ccc([N+](=O)[O-])o1)NC(=O)c1ccccc1`, for which the figures for the EC50 in data set [3] and in data set [4] were 0.995 µM (active) and > 60 µM (not active), respectively.

As for `Cc1ccnc(NC(=O)c2cc([N+](=O)[O-])cc([N+](=O)[O-])c2)c1`, the EC50 in data set [3] is 0.193 µM (active); in data set [4], > 60 µM (not active).

On to `COCc1c(C(=O)OCC(=O)N2c3ccccc3NC(=O)C2(C)C)oc2ccccc12`, for which the AC50 in data set [1] (read-out: AC50) is 20 µM (inconclusive); in data set [5], 31.6 µM (inconclusive).

`CCn1cnc2c(Nc3cccc(Cl)c3)nc(N[C@@H]3CCCC[C@H]3N)nc21`: the half-maximal activity concentration (AC50) entry in data set [1] was “inconclusive”.

As to `COc1ccc(C(=O)c2sc(Nc3cccc(OC)c3)c(C(=O)Nc3cccc(C)c3C)c2N)cc1`, the EC50 in data set [6] is > 53 µM (inactive).

For `CCN1C(=O)[C@@H]2[C@H]3C(=CC[C@@H]2C1=O)C1(OCCCO1)[C@H]1O[C@@H]1[C@H]3O`, the half-maximal activity concentration (AC50) in data set [5] was 5.01 µM (inconclusive).

For `Cc1cccc(-n2c(SCc3ccc([N+](=O)[O-])cc3)nnc2-c2c[nH]c3ccccc23)c1`, the EC50 in data set [3] is 1.77 µM (active); in data set [4], > 60 µM (not active).

`CC(=O)N1CCC(=O)N(C(C)C)c2ccccc21`: the AC50 in data set [5] was 0.0282 µM (inconclusive).

With `O=C(CN1CCCC1)Nc1ccccc1Sc1ccccc1`, in data set [6], the EC50 was > 53 µM (inactive).

Consider `CCCCN(C)CCCNC(=O)c1ccc2c(c1)N(CC)C(=O)c1ccccc1[S+]2[O-]` (stereo not drawn), for which the EC50 is 0.238 µM (active) in data set [3] and > 60 µM (not active) in data set [4].

On to `COc1ccc(C(=O)OCC(=O)Nc2nnc(-c3ccccc3)o2)cc1`, for which the EC50 in data set [7] was 5.97 µM (active); in data set [8], 19.2 µM (active).

Regarding `CCC(=O)NC(NC(=O)CC)C(Cl)Cl`, the AC50 in data set [5] is 20 µM (inconclusive).
